{"source": "paper PMC13184981", "about": "“Discovery and Development of a Potent LIMK2 Isoform-Specific Degrader” (ACS Chemical Biology, 2026)", "format_in_all_cases": "cell-based", "key": {"[1]": {"target": "T1, NanoLuc-tagged LIMK1 and Halo-tagged CRBN (Homo sapiens, UniProt P53667+Q96SW2)", "T1 construct": "CRBN vector in-house NV3391; host or cells: HEK293T", "T1 sequence (P53667 whole entry)": "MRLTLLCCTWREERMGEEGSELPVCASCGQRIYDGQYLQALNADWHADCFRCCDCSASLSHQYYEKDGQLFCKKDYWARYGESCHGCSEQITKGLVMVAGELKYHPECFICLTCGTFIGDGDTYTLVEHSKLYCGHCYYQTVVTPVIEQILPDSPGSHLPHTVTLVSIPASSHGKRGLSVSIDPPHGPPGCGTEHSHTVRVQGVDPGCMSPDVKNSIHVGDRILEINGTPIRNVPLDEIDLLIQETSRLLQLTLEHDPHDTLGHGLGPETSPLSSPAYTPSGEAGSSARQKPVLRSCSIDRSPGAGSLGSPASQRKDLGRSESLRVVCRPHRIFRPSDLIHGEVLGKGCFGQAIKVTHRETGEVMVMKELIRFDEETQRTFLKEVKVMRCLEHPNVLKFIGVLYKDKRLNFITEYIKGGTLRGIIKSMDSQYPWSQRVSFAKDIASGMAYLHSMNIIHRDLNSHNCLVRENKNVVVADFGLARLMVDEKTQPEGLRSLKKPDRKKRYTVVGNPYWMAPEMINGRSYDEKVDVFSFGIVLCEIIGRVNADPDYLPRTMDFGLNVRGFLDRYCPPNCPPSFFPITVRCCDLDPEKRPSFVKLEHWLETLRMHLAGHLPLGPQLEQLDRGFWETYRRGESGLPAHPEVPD", "T1 sequence (Q96SW2 whole entry)": "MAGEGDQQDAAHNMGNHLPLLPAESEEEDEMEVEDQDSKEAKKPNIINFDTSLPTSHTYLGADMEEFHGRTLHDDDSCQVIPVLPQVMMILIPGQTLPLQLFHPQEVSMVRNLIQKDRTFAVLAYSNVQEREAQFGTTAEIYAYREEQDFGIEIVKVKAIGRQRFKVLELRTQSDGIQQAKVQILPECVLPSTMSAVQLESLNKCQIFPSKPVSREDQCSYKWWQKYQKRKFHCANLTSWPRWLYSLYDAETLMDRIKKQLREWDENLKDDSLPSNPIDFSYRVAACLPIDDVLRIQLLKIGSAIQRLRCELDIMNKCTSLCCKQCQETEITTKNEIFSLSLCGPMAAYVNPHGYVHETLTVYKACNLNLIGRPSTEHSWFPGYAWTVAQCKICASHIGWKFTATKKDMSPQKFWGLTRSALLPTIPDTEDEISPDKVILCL", "T1 sequence (Q16531 whole entry partner)": "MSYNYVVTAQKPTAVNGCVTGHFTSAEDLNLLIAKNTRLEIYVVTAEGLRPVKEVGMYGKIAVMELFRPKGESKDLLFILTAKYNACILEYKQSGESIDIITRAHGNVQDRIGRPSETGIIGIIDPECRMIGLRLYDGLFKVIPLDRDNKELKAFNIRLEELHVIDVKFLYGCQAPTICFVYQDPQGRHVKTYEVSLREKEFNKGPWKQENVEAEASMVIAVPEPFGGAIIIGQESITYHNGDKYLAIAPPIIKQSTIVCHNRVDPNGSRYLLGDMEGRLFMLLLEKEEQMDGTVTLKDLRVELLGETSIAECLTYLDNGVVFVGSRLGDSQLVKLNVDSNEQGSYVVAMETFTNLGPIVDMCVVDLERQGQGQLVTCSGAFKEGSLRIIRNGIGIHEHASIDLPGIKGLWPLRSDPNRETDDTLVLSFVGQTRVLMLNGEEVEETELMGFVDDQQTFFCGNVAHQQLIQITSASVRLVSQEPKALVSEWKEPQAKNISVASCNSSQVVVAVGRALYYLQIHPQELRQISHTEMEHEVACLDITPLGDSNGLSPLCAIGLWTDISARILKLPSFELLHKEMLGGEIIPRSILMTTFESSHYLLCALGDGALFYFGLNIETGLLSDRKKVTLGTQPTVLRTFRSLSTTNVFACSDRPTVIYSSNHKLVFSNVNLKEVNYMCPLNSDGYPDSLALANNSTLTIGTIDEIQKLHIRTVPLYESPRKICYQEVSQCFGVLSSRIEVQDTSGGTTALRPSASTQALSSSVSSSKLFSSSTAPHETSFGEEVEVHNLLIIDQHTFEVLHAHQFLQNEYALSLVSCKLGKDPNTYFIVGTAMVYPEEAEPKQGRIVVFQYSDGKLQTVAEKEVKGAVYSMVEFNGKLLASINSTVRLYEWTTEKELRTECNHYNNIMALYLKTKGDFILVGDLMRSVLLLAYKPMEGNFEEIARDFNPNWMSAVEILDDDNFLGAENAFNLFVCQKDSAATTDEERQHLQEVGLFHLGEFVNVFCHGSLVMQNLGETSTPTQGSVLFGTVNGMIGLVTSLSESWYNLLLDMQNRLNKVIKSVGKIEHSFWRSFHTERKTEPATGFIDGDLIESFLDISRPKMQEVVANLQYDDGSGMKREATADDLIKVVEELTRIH", "assay": "NanoBRET cellular ternary complex formation, LIMK1", "text": "(§1) Next, we assessed ternary complex formation for the parent and lead PROTACs in live cells using the NanoBRET proximity assay. A ternary complex assay system was established using NanoLuc-tagged LIMKs and Halo-tagged CRBN. Formation of the ternary complex upon PROTAC addition was quantified by measuring the BRET signal. […] However, they differed in the strength of the ternary complex. […] We also confirmed the differences in ternary complex strength using the orthogonal PROXICapture approach, in which MOLT-4 cell lysate was passed over immobilized FLAG-tagged CRBN preincubated with THNAN69.\n(§2) Gene encoding LIMK1 (Promega, NV3391) and LIMK2 (Promega, NV1531) proteins cloned in frame with NanoLuc fusion tag at the C-Terminus and gene encoding cereblon (generated in-house) cloned in frame with Halo Tag at the N-Terminus, were used to measure the end-point ternary complex formation between the PROTACs and LIMK1 and LIMK2, respectively. […] To measure BRET, NanoBRET NanoGlo Substrate + Extracellular NanoLuc Inhibitor (Promega, N2162) was added to cells as per the manufacturer’s protocol, and filtered luminescence was measured on a PHERAstar FSX plate reader (BMG Labtech) equipped with a luminescence filter pair (450 nm BP filter (donor) and 610 nm LP filter (acceptor)). […]"}, "EGFP–LIMK2": {"target": "T2, EGFP–LIMK2 (Homo sapiens, UniProt P53671)", "T2 construct": "P2A remnant (from EGFP-LIMK2-P2A-mCherry; that residues stay on LIMK2 after self-cleavage is own knowledge) (C); expressed in transfected cells; host or cells: HuCCT1 (lentiviral transduction, doxycycline-inducible pCW57 vector)", "T2 sequence (P53671 whole entry)": "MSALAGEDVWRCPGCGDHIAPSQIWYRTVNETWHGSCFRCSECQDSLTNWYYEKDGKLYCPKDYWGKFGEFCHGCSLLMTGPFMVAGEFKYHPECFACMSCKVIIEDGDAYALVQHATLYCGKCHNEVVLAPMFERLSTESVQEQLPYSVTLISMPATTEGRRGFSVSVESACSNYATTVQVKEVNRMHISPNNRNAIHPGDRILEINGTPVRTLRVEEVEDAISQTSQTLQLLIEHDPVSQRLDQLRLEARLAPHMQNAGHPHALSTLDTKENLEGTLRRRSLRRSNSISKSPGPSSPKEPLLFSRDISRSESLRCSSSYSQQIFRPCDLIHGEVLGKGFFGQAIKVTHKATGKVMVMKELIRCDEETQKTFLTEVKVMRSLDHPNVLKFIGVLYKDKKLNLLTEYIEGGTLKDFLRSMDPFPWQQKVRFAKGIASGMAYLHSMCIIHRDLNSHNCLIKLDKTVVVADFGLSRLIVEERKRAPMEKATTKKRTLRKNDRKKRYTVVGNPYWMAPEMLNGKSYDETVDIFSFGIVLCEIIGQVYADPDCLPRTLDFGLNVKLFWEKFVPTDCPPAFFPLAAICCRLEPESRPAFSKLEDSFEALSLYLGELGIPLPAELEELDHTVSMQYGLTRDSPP", "assay": "EGFP-LIMK2 depletion live-cell assay (Incucyte)", "description": "To enable a more comprehensive and rapid evaluation of the synthesized PROTACs, we generated a stable, doxycycline-inducible HuCCT1 cell line that expressed an N-terminally fused EGFP–LIMK2 protein. […] The degradation activity of the synthesized PROTACs set was screened at five concentrations ranging from 1 nM to 1000 nM over 72 h using live-cell imaging (Figure E).\nLIMK2 was cloned into pcDNA5-EGFP-NLS-P2A-mCherry-PTS1 (Addgene plasmid #87803) by replacing the NLS sequence with the LIMK2 sequence. pcDNA5-EGFP-NLS-P2A-mCherry-PTS1 was a gift from Andrea Musacchio. Subsequently, EGFP-[…]-P2A-mCherry was cloned into the lentiviral vector pCW57-MCS1-P2A-MCS2 (Hygro) (Addgene plasmid #80922) to generate pCW57-HygB-EGFP-LIMK2-P2A-mCherry. pCW57-MCS1-P2A-MCS2 (Hygro) was a gift from Adam Karpf.\nHEK293T cells (ATCC, CRL-3216) were cultured in Dulbecco’s Modified Eagle’s Medium (DMEM), while HUCCT1 cells (ATCC, CRL-1997) were cultured in RPMI medium supplemented with 10% fetal bovine serum (FBS) and 1% penicillin/streptomycin (P/S) antibiotic mix (all from Sigma-Aldrich, St. Louis, Missouri, USA). Lentiviral particles were produced in HEK293T cells using pCW57-HygB-EGFP-LIMK2-[…]P2A-mCherry, pMD2.G, and psPAX2. HUCCT1 cells were transduced with lentivirus to express LIMK2.\nBriefly, the cells were plated and propagated in 6-well plates overnight. The next day, transduction with viruses was performed. Two days later, transduced cells with pCW57-HygB-EGFP-LIMK2-P2A-mCherry plasmids were selected using 100 μg/mL Hygromycin B. After at least three passages, the cells were sorted for the same populations of RFP- and GFP-expressing cells using the SH800S Cell Sorter (Sony Biotechnology, San Jose, CA, USA). Stable pools of cells were maintained in the same medium used for selection.\nTo assess the turnover of LIMK2, we used the Incucyte S3 or XS5 live-cell imaging system and performed the assay as previously described. , Briefly, 2,000 HUCCT1 cells stably expressing EGFP-LIMK2-P2A-mCherry were seeded per well in a 384-well plate in 50 μL of RPMI medium supplemented with 10% fetal bovine serum (FBS) and 1% penicillin/streptomycin. Cells were incubated for 24 h before treatment. To induce LIMK2 expression, 1 μg/mL of doxycycline (Sigma-Aldrich, D9891–1G) was added at the time of seeding.\nAfter 24 h, 50 μL of medium containing either 0.1% DMSO or the desired concentration of PROTACs was added. Fluorescence in three channels–GFP, RFP, and phase contrast (cell confluence)–was monitored every 2 h for 72 h using the Incucyte S3 or XS5 (Sartorius, Germany). LIMK2 turnover was quantified by calculating the ratio of total fluorescence intensity of RFP to GFP. Each time point represents the average ratio from three technical replicates."}, "[2]": {"target": "T3, NanoLuc-tagged LIMK2 and Halo-tagged CRBN (Homo sapiens, UniProt P53671+Q96SW2)", "T3 construct": "CRBN vector in-house NV1531; host or cells: HEK293T", "T3 sequence (P53671 whole entry)": "as above", "T3 sequence (Q96SW2 whole entry)": "as the sequence (Q96SW2 whole entry) above", "T3 sequence (Q16531 whole entry partner)": "as the sequence (Q16531 whole entry partner) above", "assay": "NanoBRET cellular ternary complex formation, LIMK2", "text": "as §1, §2"}}, "data": [{"molecule": "Cc1c(OCc2cn(CCCCC(=O)Nc3ncc(-c4cc(C(F)F)nn4-c4c(Cl)cccc4Cl)s3)nn2)cccc1N1CCC(=O)NC1=O", "note": "[22b]", "values": [{"measurement": "EC50", "setting": "[1]", "result": 0.3, "unit": "µM"}, {"measurement": "Dmax", "setting": "EGFP–LIMK2; 10 nM PROTAC", "result": 88.2, "unit": "%"}, {"measurement": "Dmax", "setting": "EGFP–LIMK2; 100 nM PROTAC", "result": 97.6, "unit": "%"}, {"measurement": "Dmax", "setting": "EGFP–LIMK2; 1000 nM PROTAC", "result": 98.5, "unit": "%"}, {"measurement": "time to maximum degradation after PROTAC treatment", "setting": "EGFP–LIMK2; EGFP–LIMK2 monitored over 72 h", "result": "approximately 60 h"}, {"measurement": "EGFP–LIMK2 degradation with MLN4924 cotreatment", "setting": "EGFP–LIMK2; PROTAC 10, 100 and 1000 nM + MLN4924 1 μM", "result": "no LIMK2 degradation"}, {"measurement": "EC50", "setting": "[2]", "result": 0.077, "unit": "µM"}]}]}
